Measured values reported in patent publication US10941157B2, “Pesticidal compositions and uses thereof” (Gilead Apollo, LLC, priority 2015, dated 2021).
In brackets after ≈: the same amount, converted by molar mass. Read-outs that look alike come from different tables or passages of the source.

Key:
[1] = test system: Fusarium moniliforme (Fm); assay: In vitro pathogen growth inhibition assay, Fm; format: cell-based; conditions: Fusarium verticillioides
How it was run: (§1)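 Value reported is the compound concentration reaching ≥90% growth inhibition, from OD readings at 24 and 48 h after blank subtraction, confirmed visually. Inoculum was spores diluted in 17% V8 medium, except Rs, using 1.5 mm mycelial plugs in ¼ PDB; actual compound concentration corrected via OD600.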

[2] = test system: Collectotrichum graminicola (Cg); assay: In vitro pathogen growth inhibition assay, Cg; format: cell-based; conditions: 48 h
How it was run: as §1

[3] = test system: Puccinia triticina; assay: Foliar protection test for wheat leaf rust control; format: in vivo; conditions: foliar application to wheat (Triticum aestivum cv. Winterhawk), evaluated 10 days later
[4] = test system: Rhizoctonia solani (Rs); assay: In vitro pathogen growth inhibition assay, Rs (mycelial plugs); format: cell-based; conditions: mycelial plugs; for IC90: Rhizoctonia solani, 48 h
How it was run: (§2)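 Spores in 17% V8 liquid medium, or 1.5 mm Rs mycelial plugs in ¼ PDB, incubated with compound; final concentration checked by OD600 for precipitation. OD readings at 24 and 48 h, blank-subtracted, plus visual ratings; value is concentration giving ≥90% growth inhibition.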

[5] = test system: Fusarium virguliforme (Fv); assay: In vitro pathogen growth inhibition assay, Fv; format: cell-based
How it was run: as §2

[6] = test system: Diplodia maydis (Dm); assay: In vitro pathogen growth inhibition assay, Dm; format: cell-based; conditions: Stenocarpella maydis, 48 h
How it was run: as §2

[7] = test system: Phytophthora capsici (Pc); assay: In vitro pathogen growth inhibition assay, Pc; format: cell-based; conditions: 48 h
How it was run: as §2

[8] = test system: Botrtyis cinerea (Bc); assay: In vitro pathogen growth inhibition assay, Bc; format: cell-based; conditions: 48 h
How it was run: as §1

[9] = test system: Mycosphaerella graminicola (synthetic Septoria tritici); assay: Foliar protection test for wheat septoria leaf blotch control; format: in vivo; conditions: foliar spray on Triticum aestivum cv. WinterHawk, inoculated 1 hour after treatment, evaluated 16 days later
[10] = test system: Blumeria graminis f. sp. hordei; assay: Foliar protection test for barley powdery mildew control; format: in vivo; conditions: foliar spray on Hordeum vulgare cv. Perry, inoculated 24 hours after treatment, evaluated 7 days later
Method: Plants (Hordeum vulgare cv. Perry) were grown for 6 days in 2-inch square pots containing Metromix 200 medium amended with fertilizer. […] After inoculation with the pathogen of Blumeria graminis f. sp. hordei, plants were kept at conditions of 20 to 22° C., 70% relative humidity, and 200 uM of light to facilitate infection and disease development. […] An atomizer was used for applying the solution onto both sides of the leaves until thoroughly wetted. […] At 24 hours after treatment, the plants were moved to a cooler chamber and inoculated by shaking well-colonized, untreated stock plants above the treated plants. This allowed producing a settling cloud of spores and resulting in uniform infection. Efficacy was evaluated in 7 days later by examining leaves for colonization and growth of mildew. Table 4 lists the results of barley powdery mildew control at a compound concentration of 10 ppm or lower.

[11] = test system: Septoria tritici (St); assay: In vitro pathogen growth inhibition assay, St; format: cell-based; conditions: Zymoseptoria tritici, 48 h
How it was run: as §1

[12] = test system: Sphaerotheca fuliginea; assay: Foliar protection for cucumber powdery mildew control; format: in vivo; conditions: foliar spray on Cucumis sativus cv. Straight Eight, inoculated 24 hours after treatment, evaluated 7 days later
Method: Plants (Cucumis sativus cv. Straight Eight) were grown for 10 days in 2.5-inch square pots containing Metromix 200 medium amended with fertilizer. For propagation, plants were maintained in a growth chamber at conditions of 23 to 27° C., 16 hour light cycle, ambient humidity, and with sub-irrigation as needed. After inoculation with the pathogen of Sphaerotheca fuliginea, plants were kept at conditions of 23 to 27° C., 16 hour light cycle, 60% relative humidity, and with sub-irrigation as needed to facilitate infection and disease development. […] An atomizer was used for applying the solution onto both sides of the leaves until thoroughly wetted. […] At 24 hours after treatment, the plants were moved to a cooler chamber and inoculated by shaking well-colonized, untreated stock plants above the treated plants. This allowed producing a settling cloud of spores and resulting in uniform infection. Inoculated plants were kept near other sporulating stock plants to allow for infection of newly emerging leaves. Efficacy was evaluated in 7 days later by examining leaves for colonization and growth of mildew. Table 5 lists the results of cucumber powdery mildew control at a compound concentration of 10 ppm or lower.

[13] = test system: Phakopsora pachyrhizi; assay: Foliar protection test for Asian soybean rust control; format: in vivo; conditions: foliar application to soybean (Glycine max AG4832), percent disease area evaluated 14 days later
[14] = test system: Fusarium graminearum; format: in vivo; conditions: spray on flowering Triticum aestivum cv. Samson, inoculated 24 hours after treatment, evaluated 14 days later
[15] = ≥90% inhibition, 48 hours vs 2% DMSO control, read-out: Compound Concentration (ppm) sufficient for ≥90% inhibition of growth, Fm
[16] = ≥90% inhibition, 48 hours vs 2% DMSO control, read-out: Compound Concentration (ppm) sufficient for ≥90% inhibition of growth, Cg
[17] = ≥90% inhibition, 48 hours vs 2% DMSO control, read-out: Compound Concentration (ppm) sufficient for ≥90% inhibition of growth, Rs
[18] = ≥90% inhibition, 48 hours vs 2% DMSO control, read-out: Compound Concentration (ppm) sufficient for ≥90% inhibition of growth, Fv
[19] = ≥90% inhibition, 48 hours vs 2% DMSO control, read-out: Compound Concentration (ppm) sufficient for ≥90% inhibition of growth, Dm
[20] = ≥90% inhibition, 48 hours vs 2% DMSO control, read-out: Compound Concentration (ppm) sufficient for ≥90% inhibition of growth, Pc
[21] = ≥90% inhibition, 48 hours vs 2% DMSO control, read-out: Compound Concentration (ppm) sufficient for ≥90% inhibition of growth, Bc
[22] = ≥90% inhibition, 48 hours vs 2% DMSO control, read-out: Compound Concentration (ppm) sufficient for ≥90% inhibition of growth, St
[23] = ≥90% growth inhibition, 48 hours, vs 2% DMSO control, read-out: Compound Concentration (ppm) sufficient for ≥90% inhibition of Fm
[24] = ≥90% growth inhibition, 48 hours, vs 2% DMSO control, read-out: Compound Concentration (ppm) sufficient for ≥90% inhibition of Cg
[25] = ≥90% growth inhibition, 48 hours, vs 2% DMSO control, read-out: Compound Concentration (ppm) sufficient for ≥90% inhibition of Rs
[26] = ≥90% growth inhibition, 48 hours, vs 2% DMSO control, read-out: Compound Concentration (ppm) sufficient for ≥90% inhibition of Dm
[27] = ≥90% growth inhibition, 48 hours, vs 2% DMSO control, read-out: Compound Concentration (ppm) sufficient for ≥90% inhibition of Pc
[28] = ≥90% growth inhibition, 48 hours, vs 2% DMSO control, read-out: Compound Concentration (ppm) sufficient for ≥90% inhibition of Bc
[29] = ≥90% growth inhibition, 48 hours, vs 2% DMSO control, read-out: Compound Concentration (ppm) sufficient for ≥90% inhibition of St
[30] = ≥90% growth inhibition, 48 hours, vs 2% DMSO control, read-out: Compound Concentration (ppm) sufficient for ≥90% inhibition of Fv

Row | Structure (SMILES) | Wheat Leaf Rust Control at a compound concentration of 10 ppm or lower [3] | Septoria Leaf Blotch Control at a compound concentration of 25 ppm or lower [9] | Barley Powdery Mildew Control at a compound concentration of 10 ppm or lower [10] | IC90 [1, 23] [µg/mL] | IC90 [2, 24] [µg/mL] | IC90 [4, 25] [µg/mL] | IC90 [6, 26] [µg/mL] | IC90 [7, 27] [µg/mL] | IC90 [8, 28] [µg/mL] | IC90 [11, 29] [µg/mL] | IC90 [5, 30] [µg/mL] | other results
1 | COCCCO[C@@H](Cn1c(=O)n(C(C)(C)C(=O)NC(C)C)c(=O)c2c(C)c(-n3nccn3)sc21)c1cc(F)ccc1OC [Compound I-084, (R)-2-(1-(2-(5-fluoro-2-methoxyphenyl)-2-(3-methoxypropoxy)ethyl)-5-methyl-2,4-dioxo-6-(2H-1,2,3-triazol-2-yl)-1,4-dihydrothieno[2,3-d]pyrimidin-3 (2H)-yl)-N-isopropyl-2-methylpropanamide] | A (from 70% to 84% control of wheat leaf rust) | AA (≥85% control of wheat septoria leaf blotch) | AA (≥85% control of barley powdery mildew) |  |  |  |  |  |  |  |  | IC90 [1, 15]: 0.08 µg/mL (≈ 0.13 µM); IC90 [2, 16]: 0.4 µg/mL (≈ 0.649 µM); IC90 [4, 17]: 0.4 µg/mL (≈ 0.649 µM); IC90 [5, 18]: 0.08 µg/mL (≈ 0.13 µM); IC90 [6, 19]: 0.08 µg/mL (≈ 0.13 µM); IC90 [7, 20]: > 50 µg/mL; IC90 [8, 21]: 0.4 µg/mL (≈ 0.649 µM); IC90 [11, 22]: ≥ 10 µg/mL
2 | COCCO[C@@H](Cn1c(=O)n([C@H](C)C(=O)NC(C)C)c(=O)c2c(C)c(-n3cccn3)sc21)c1cc(F)ccc1OC [Compound I-310, (R)-2-(1-((R)-2-(5-fluoro-2-methoxyphenyl)-2-(2-methoxyethoxy)ethyl)-5-methyl-2,4-dioxo-6-(1H-pyrazol-1-yl)-1,4-dihydrothieno[2,3-d]pyrimidin-3 (2H)-yl)-N-isopropylpropanamide] | C (from 25 to 49% control of wheat leaf rust) | B (from 50 to 69% control of wheat septoria leaf blotch) | AA (≥85% control of barley powdery mildew) | 0.08 (≈ 0.136 µM) | 2 (≈ 3.4 µM) | 0.08 (≈ 0.136 µM) | ≥ 2 | > 50 | 2 (≈ 3.4 µM) | > 50 |  | Cucumber Powdery Mildew Control at a compound concentration of 10 ppm or lower [12]: AA (≥85% control of cucumber powdery mildew); Asian Soybean Rust Control at a compound concentration of 25 ppm or lower [13]: C (from 25 to 49% control of Asian soybean rust); Wheat Fusarium Head Blight Control at a compound concentration of 25 ppm or lower [14]: C (from 25 to 49% control of wheat fusarium head blight)
3 | CCOC(=O)c1sc2c(c1C)c(=O)n([C@H](C)C(=O)NC(C)C)c(=O)n2C[C@H](OCCC#N)c1cc(F)ccc1OC [Compound I-220, (R)-ethyl-1-(2-(2-cyanoethoxy)-2-(5-fluoro-2-methoxyphenyl)ethyl)-3-((R)-1-(isopropylamino)-1-oxopropan-2-yl)-5-methyl-2,4-dioxo-1,2,3,4-tetrahydrothieno[2,3-d]pyrimidine-6-carboxylate] | C (from 25 to 49% control of wheat leaf rust) | B (from 50 to 69% control of wheat septoria leaf blotch) | AA (≥85% control of barley powdery mildew) | 0.08 (≈ 0.136 µM) |  |  |  |  |  | > 50 | 0.4 (≈ 0.68 µM) | Compound Concentration (ppm) sufficient for ≥90% inhibition of Rs ([4]; ≥90% growth inhibition, 48 hours, vs 2% DMSO control): 0.08 ppm; Cucumber Powdery Mildew Control at a compound concentration of 10 ppm or lower [12]: AA (≥85% control of cucumber powdery mildew); Asian Soybean Rust Control at a compound concentration of 25 ppm or lower [13]: B (from 50 to 69% control of Asian soybean rust); Wheat Fusarium Head Blight Control at a compound concentration of 25 ppm or lower [14]: C (from 25 to 49% control of wheat fusarium head blight)
4 | CCOC(=O)c1sc2c(c1C)c(=O)n(C(C)(C)C(=O)N1CCCC1)c(=O)n2C[C@H](OCCC#N)c1cc(F)ccc1OC [Compound I-182] |  |  |  | 0.08 (≈ 0.13 µM) | 2 (≈ 3.25 µM) | 0.4 (≈ 0.651 µM) | 2 (≈ 3.25 µM) | > 50 | 2 (≈ 3.25 µM) | > 50 | 2 (≈ 3.25 µM) | 
5 | Cc1c(-n2nccn2)sc2c1c(=O)n(C(C)(C)C(=O)NC(C)C)c(=O)n2CCc1cc(F)ccc1OCc1ccccc1 [Compound I-332] |  |  |  | 2 (≈ 3.31 µM) | > 50 | > 50 | > 50 | > 50 | > 50 | > 50 | 2 (≈ 3.31 µM) | 
6 | COc1ccc(F)cc1[C@H](Cn1c(=O)n([C@H](C)C(=O)N2CCCC2)c(=O)c2c(C)c(-n3cccn3)sc21)OCCC#N [Compound I-314] |  |  |  | 2 (≈ 3.36 µM) | 50 (≈ 84.1 µM) | > 50 | > 50 | > 50 | > 50 | > 50 | 10 (≈ 16.8 µM) | 
7 | COc1ccccc1[C@H](Cn1c(=O)n(C(C)(C)C(=O)NCC(C)C)c(=O)c2c(C)c(-n3nccn3)sc21)OC1CCOCC1 [Compound I-041] |  |  |  |  |  |  |  |  |  |  |  | IC90 [1, 15]: 0.08 µg/mL (≈ 0.128 µM); IC90 [2, 16]: 2 µg/mL (≈ 3.2 µM); IC90 [4, 17]: 0.08 µg/mL (≈ 0.128 µM); IC90 [5, 18]: 2 µg/mL (≈ 3.2 µM); IC90 [6, 19]: ≥ 2 µg/mL; IC90 [7, 20]: > 50 µg/mL; IC90 [8, 21]: 0.4 µg/mL (≈ 0.64 µM); IC90 [11, 22]: > 10 µg/mL
8 | CCc1ccc(F)cc1[C@H](Cn1c(=O)n(C(C)(C)C(=O)NC(C)C)c(=O)c2c(C)c(-n3nccn3)sc21)OCCOC [Compound I-247] |  |  |  | 0.08 (≈ 0.133 µM) | 0.4 (≈ 0.666 µM) | 2 (≈ 3.33 µM) | 2 (≈ 3.33 µM) | > 50 | 0.4 (≈ 0.666 µM) | ≥ 10 | 0.4 (≈ 0.666 µM) | 
9 | COc1ccc(F)cc1[C@@H](O)Cn1c(=O)n(C(C)(C)C(=O)NC(C)C)c(=O)c2c(C)c(-n3cccn3)sc21 [Compound I-187] |  |  |  | 0.4 (≈ 0.736 µM) | 10 (≈ 18.4 µM) | 0.4 (≈ 0.736 µM) | 10 (≈ 18.4 µM) | ≥ 50 | 2 (≈ 3.68 µM) | > 50 | 0.4 (≈ 0.736 µM) | 
